Results published in paper PMC12796071, “Evaluation of [^18F]MNI-1054, a novel PET ligand for lysine-specific histone demethylase 1A (LSD1), in non-human primates” (EJNMMI Research, 2025).
Values joined by “and” are separate entries in the source; they are usually repeats but may differ in a detail not shown here. Equal values may be shown once. “Also recorded” adds a separate entry of the source.

Test: Whole-body PET biodistribution and radiation dosimetry (OLINDA 2.0)
Assay type: in vivo
Settings: for Dose, Urinary bladder wall: no-bladder-void model; for whole-body effective dose, ED (ICRP-103): scaled from NHP to human
Protocol: Dynamic whole-body PET was conducted in one male (M3, 15.4 kg) and one female (M4, 6.8 kg) rhesus to study the biodistribution and radiation dosimetry of [^18F]MNI-1054. Whole-body images were acquired over ~4 h (17–19 passes, 4 bed positions) using a Biograph mCT PET/CT scanner (Siemens). The images in the series were subsequently reconstructed in 400 × 400 × 300 pixel arrays with pixel size: 2 × 2 × 2 mm^3 using the iterative True-X algorithm (4 iterations, 21 subsets) provided by the camera manufacturer, incorporating point spread function modeling and corrections for random, scatter, normalization, dead-time and attenuation. Prior to PET, each animal received a whole-body CT for correcting attenuation and scatter as well as to assist in anatomical localization of organs of interest.
Reconstructed whole-body PET volumes were transferred to PMOD software (PMOD Technologies, Zurich, Switzerland) for analysis. Decay correction was first removed to facilitate the calculation of radioactive disintegrations from dynamic data. Images were reviewed for assessment of body organ radioactivity distribution. VOIs were manually drawn to capture the following organs: brain, heart wall, lungs, gallbladder, liver, kidneys, spleen, testes (male), urinary bladder, back vertebrae, and intestines, and defined dynamically to account for any animal movement or shift in organ position or shape between acquisitions. Total activity (kBq) within each VOI was determined and organ TACs were generated and expressed as percent of the injected activity.
The number of disintegrations per unit activity administered in each source organ (i.e., the “residence times” or “time-integrated activity coefficients”), τ, were computed from the areas under the non-decay corrected TACs via the trapezoidal method. The area under the curve from the end of imaging to infinity was calculated with the assumption of physical decay only following the last imaging time point. Residence times were converted to adult human values using conversion factors based on differences in organ and body weights between both species. The ICRP 100 HAT gastrointestinal (GI) tract model was applied to estimate residence times in the left, right, and sigmoid (i.e., rectum) colon and small intestine, with the assumption that activity entered the GI tract via the small intestine with no reabsorption. The intestinal decay-corrected time-activity curve was used for estimating the fraction of the radioactivity entering the intestine during imaging. Red marrow residence times were calculated based on assumption that vertebrae contain ~40% of total red marrow.
OLINDA 2.0 software (Hermes Medical Solutions) was used to estimate the organ and whole-body radiation absorbed doses. OLINDA 2.0 performs internal dose calculations based on MIRD and Radiation Dose Assessment Resource (RADAR) methodology. ICRP-89 adult male (73 kg) and female (60 kg) models were used to calculate the s-factors. All other MIRD assumptions about the homogeneity of source organ distribution were employed. The effective doses were computed with biological tissue weighting factors defined in the ICRP Publication 103 [26].

Cc1cc([18F])ncc1C(=O)Nc1ccc([C@@H]2C[C@H]2NCC2CC2)cc1 [[^18F]MNI-1054]
Dose, Adrenals (ICRP-89 adult female model): 2.24E-02 mSv/MBq | Dose, Brain (ICRP-89 adult female model): 1.22E-02 mSv/MBq | Dose, Breasts (ICRP-89 adult female model): 1.06E-02 mSv/MBq | Dose, Esophagus (ICRP-89 adult female model): 1.75E-02 mSv/MBq | Dose, Eyes (ICRP-89 adult female model): 9.29E-03 mSv/MBq | Dose, Gallbladder wall (ICRP-89 adult female model): 2.88E-01 mSv/MBq | Dose, Heart wall (ICRP-89 adult female model): 4.98E-02 mSv/MBq | Dose, Kidneys (ICRP-89 adult female model): 5.28E-02 mSv/MBq | Dose, Left colon (ICRP-89 adult female model): 3.02E-02 mSv/MBq | Dose, Liver (ICRP-89 adult female model): 2.29E-02 mSv/MBq | Dose, Lungs (ICRP-89 adult female model): 6.16E-02 mSv/MBq | Dose, Osteogenic cells (ICRP-89 adult female model): 1.36E-02 mSv/MBq | Dose, Ovaries (ICRP-89 adult female model): 1.66E-02 mSv/MBq | Dose, Pancreas (ICRP-89 adult female model): 2.12E-02 mSv/MBq | Dose, Rectum (ICRP-89 adult female model): 1.88E-02 mSv/MBq | Dose, Red marrow (ICRP-89 adult female model): 2.01E-02 mSv/MBq | Dose, Right colon (ICRP-89 adult female model): 6.29E-02 mSv/MBq | Dose, Salivary glands (ICRP-89 adult female model): 1.01E-02 mSv/MBq | Dose, Small intestine (ICRP-89 adult female model): 6.01E-02 mSv/MBq | Dose, Spleen (ICRP-89 adult female model): 2.77E-02 mSv/MBq | Dose, Stomach wall (ICRP-89 adult female model): 1.69E-02 mSv/MBq | Dose, Thymus (ICRP-89 adult female model): 1.88E-02 mSv/MBq | Dose, Thyroid (ICRP-89 adult female model): 1.32E-02 mSv/MBq | Dose, Total body (ICRP-89 adult female model): 1.53E-02 mSv/MBq | Dose, Uterus (ICRP-89 adult female model): 1.92E-02 mSv/MBq | Dose, Urinary bladder wall (ICRP-89 adult female model): 5.92E-02 mSv/MBq | whole-body effective dose, ED (ICRP-103) (ICRP-89 adult female model): 0.0272 mSv/MBq and 2.72E-02 mSv/MBq | Dose, Adrenals (ICRP-89 adult male model): 1.87E-02 mSv/MBq | Dose, Brain (ICRP-89 adult male model): 9.69E-03 mSv/MBq | Dose, Esophagus (ICRP-89 adult male model): 1.49E-02 mSv/MBq | Dose, Eyes (ICRP-89 adult male model): 7.78E-03 mSv/MBq | Dose, Gallbladder wall (ICRP-89 adult male model): 6.57E-02 mSv/MBq | Dose, Heart wall (ICRP-89 adult male model): 4.90E-02 mSv/MBq | Dose, Kidneys (ICRP-89 adult male model): 4.63E-02 mSv/MBq | Dose, Left colon (ICRP-89 adult male model): 1.62E-02 mSv/MBq | Dose, Liver (ICRP-89 adult male model): 3.02E-02 mSv/MBq | Dose, Lungs (ICRP-89 adult male model): 4.01E-02 mSv/MBq | Dose, Osteogenic cells (ICRP-89 adult male model): 1.21E-02 mSv/MBq | Dose, Pancreas (ICRP-89 adult male model): 1.48E-02 mSv/MBq | Dose, Prostate (ICRP-89 adult male model): 1.78E-02 mSv/MBq | Dose, Rectum (ICRP-89 adult male model): 1.60E-02 mSv/MBq | Dose, Red marrow (ICRP-89 adult male model): 1.65E-02 mSv/MBq | Dose, Right colon (ICRP-89 adult male model): 2.37E-02 mSv/MBq | Dose, Salivary glands (ICRP-89 adult male model): 9.10E-03 mSv/MBq | Dose, Small intestine (ICRP-89 adult male model): 2.08E-02 mSv/MBq | Dose, Spleen (ICRP-89 adult male model): 1.84E-02 mSv/MBq | Dose, Stomach wall (ICRP-89 adult male model): 1.42E-02 mSv/MBq | Dose, Testes (ICRP-89 adult male model): 3.17E-02 mSv/MBq | Dose, Thymus (ICRP-89 adult male model): 1.44E-02 mSv/MBq | Dose, Thyroid (ICRP-89 adult male model): 1.14E-02 mSv/MBq | Dose, Total body (ICRP-89 adult male model): 1.16E-02 mSv/MBq | Dose, Urinary bladder wall (ICRP-89 adult male model): 1.24E-01 mSv/MBq | whole-body effective dose, ED (ICRP-103) (ICRP-89 adult male model): 0.0267 mSv/MBq and 2.67E-02 mSv/MBq | Dose, Adrenals (Mean): 2.06E-02 mSv/MBq | Dose, Brain (Mean): 1.09E-02 mSv/MBq | Dose, Breasts (Mean): 1.06E-02 mSv/MBq | Dose, Esophagus (Mean): 1.62E-02 mSv/MBq | Dose, Eyes (Mean): 8.54E-03 mSv/MBq | Dose, Gallbladder wall (Mean): 0.18 mSv/MBq and 0.177 mSv/MBq and 1.77E-01 mSv/MBq | Dose, Heart wall (Mean): 4.94E-02 mSv/MBq | Dose, Kidneys (Mean): 4.96E-02 mSv/MBq | Dose, Left colon (Mean): 2.32E-02 mSv/MBq | Dose, Liver (Mean): 2.66E-02 mSv/MBq | Dose, Lungs (Mean): 5.09E-02 mSv/MBq | Dose, Osteogenic cells (Mean): 1.29E-02 mSv/MBq | Dose, Ovaries (Mean): 1.66E-02 mSv/MBq | Dose, Pancreas (Mean): 1.80E-02 mSv/MBq | Dose, Prostate (Mean): 1.78E-02 mSv/MBq | Dose, Rectum (Mean): 1.74E-02 mSv/MBq | Dose, Red marrow (Mean): 1.83E-02 mSv/MBq | Dose, Right colon (Mean): 4.33E-02 mSv/MBq | Dose, Salivary glands (Mean): 9.60E-03 mSv/MBq | Dose, Small intestine (Mean): 4.05E-02 mSv/MBq | Dose, Spleen (Mean): 2.31E-02 mSv/MBq | Dose, Stomach wall (Mean): 1.56E-02 mSv/MBq | Dose, Testes (Mean): 3.17E-02 mSv/MBq | Dose, Thymus (Mean): 1.66E-02 mSv/MBq | Dose, Thyroid (Mean): 1.23E-02 mSv/MBq | Dose, Total body (Mean): 1.35E-02 mSv/MBq | Dose, Uterus (Mean): 1.92E-02 mSv/MBq | Dose, Urinary bladder wall (Mean): 0.0916 mSv/MBq and 9.16E-02 mSv/MBq | whole-body effective dose, ED (ICRP-103) (Mean): 2.70E-02 mSv/MBq | whole-body effective dose per 185 MBq injected (female value): 5.03 mSv | maximal dose allowed for a single study per 21 CFR § 361.1 (gallbladder wall as the dose-limiting organ): 282.5 MBq | elimination pathways (whole-body imaging): eliminated via both hepatobiliary and urinary pathways; also recorded: urinary (primary) and hepatobiliary pathways
